{
  "source": "patent US12110496B2",
  "about": "“Method of determining the zygosity of event MON 88302” (priority 2010, dated 2024)",
  "key": {"[1]": {"system": "canola comprising event RT73 (Genuity Roundup Ready Canola, variety 34-65)", "test": "Field trial of glyphosate tolerance, RT73 event (crop injury, maturity, seed moisture, yield)", "type": "in vivo, Brassica napus", "text": "(§1) The current registered glyphosate rate for the Genuity™ Roundup Ready® Canola system (event RT73) is a single application of 675 g ae/ha or two 450 g ae/ha applications up to the six leaf stage of the canola crop. RT73 was compared with the MON 88302 event at multiple single application rates of glyphosate. Applications were made from post emergence to the first flower of the canola crop. The Genuity™ Roundup Ready® Canola system (RT73 event) was represented by the commercial open pollinated variety 34-65, and event MON88302 was transformed into the Ebony germplasm.\n(§2) Eight trials were established with six taken to harvest (one site was lost to drought and one site was lost to hail, and data from one harvested site was not used due to the coefficient of variation (CV) exceeding the predetermined cut-off value). Standard canola growing practices were utilized throughout the season to optimize plant growth. Pre-emergent and post-emergent conventional herbicides and seed treatment containing fungicide and insecticide were used to minimize pest pressure. Trials were set up as a split block design with Genuity™ Roundup Ready® Canola (RT73 event) or MON 88302 systems blocked and herbicide rates randomized within the block. Plots were two by six meters and replicated three times. Plots were sprayed with handheld boom sprayers at 100-110 l/ha application rate at the appropriate crop stage. The Canadian formulation of Roundup WeatherMAX® (540 g/L) was used as the glyphosate product. The four to six leaf stage was defined as four to six true leaves on the main stem, and first flower was when 50% of the plants had at least one flower. Percent chlorosis (% CHLR) was recorded seven to ten days after herbicide application (DAT or days after treatment). Percent chlorosis is a visual estimate of the amount of yellowing on the leaves of plants as a result of herbicide treatment compared to the untreated check on a 1 to 100 scale. Percent growth reduction (% GR) was recorded 14-21 days after herbicide application (DAT). Percent growth reduction is a visual evaluation used to describe plant growth reduction consisting of, but not limited to, reduced height and/or quantity of foliage for the treated area. The evaluation pertains only to the above ground portion of the plant. Percent growth reduction is compared to the non-treated check and is rated on a 1 to 100 scale. Maturity was recorded as days after planting to when 30% of the seeds on the main raceme are brown/black in color. Percent seed moisture was recorded electronically during harvesting. All plots were swathed and then allowed to dry until seed moisture was low enough to facilitate harvesting. Weight and seed moisture was recorded electronically during harvesting and converted to bushels/acre at 10% seed moisture. Each location was analyzed individually and averages across locations were analyzed using statistical software. Data were screened for outliers using the standard two-pass procedure based on deleted studentized residuals using a False Discovery Rate (FDR) adjustment for an experiment-wise Type I error rate of 5% at each location. Outliers were removed prior to analysis. The standard analysis of variance for a split-plot design was performed by mixed model with restricted maximum likelihood estimation-variety and herbicide treatments were treated as fixed effects, replications and locations were random effects. Least-squares means were calculated for each variety and each treatment, and t-tests with comparison-wise error rates of 5% were used to determine the significance between variety and control at each herbicide treatment level on canola growth characteristics. Crop injury, maturity, and yield were measured to assess benefits."}, "[2]": {"system": "Brassica napus events from construct 1", "test": "First year efficacy field trials, construct 1 events", "type": "in vivo", "procedure": "(§3) The 25 events were also evaluated in first year field testing for efficacy located at the same testing site as the agronomy field trials. Efficacy field trials were initiated to evaluate the vegetative and reproductive tolerance of the events to sequential applications of glyphosate at various application timings and rates. The 16 R2 events from construct 1 were evaluated at 5 locations. The 3 R2 events from construct 2, the 3 R2 events from construct 4, and the 3 R2 events from construct 5 were evaluated at 4 locations. Each study contained the positive isoline of each event and two commercial varieties. A split plot design with 3 replications was used with herbicide treatments as whole plots and event entries as subplots. A non-sprayed treatment was included for comparison.\nEvents were evaluated for vegetative and reproductive tolerance to either a single application of 1.6 lb AE/A or two sequential applications of 0.8 lb AE/A when applied from crop emergence up to first flower. Roundup WeatherMAX® was applied at three different rates that were equivalent to 2×, 4×, and 8× of the single application rate (Table 2). The initial application was made at the four leaf stage followed by a second application at the prebolt stage. […]\nData Collection was performed as above. Glyphosate injury was assessed as follows. […] Vegetative injury was rated after the first glyphosate application while reproductive percent chlorosis/necrosis was evaluated after the second application using a scale ranging from 0% (no injury) to 100% (plant death). Growth reduction was evaluated at 14 to 21 days after each application using a scale ranging from 0 to 100%. Vegetative growth reduction was evaluated after the first application while reproductive growth reduction was determined after the sequential application. Least-squares means were calculated for each combination of glyphosate level and event, and t-tests were used to determine the significance of the effects of glyphosate on event tolerance. […]"}, "[3]": {"system": "canola comprising event MON 88302 (Ebony germplasm)", "test": "Field trial of glyphosate tolerance, MON 88302 event (crop injury, maturity, seed moisture, yield)", "type": "in vivo, Brassica napus", "conditions": "for 7-10 DAT % CHLR Avg / 14-21 DAT % GR Avg: MON88302", "text": "as §1, §2"}, "[4]": {"system": "Brassica napus events from construct 2", "test": "First year efficacy field trials, construct 2 events", "type": "in vivo", "procedure": "as §3, with “A split plot design with 3 replications was used with herbicide treatments as whole plots and event entries as subplots. A non-sprayed treatment was included for comparison.” left out\nEvents were evaluated for vegetative and reproductive tolerance to either a single application of 1.6 lb AE/A or two sequential applications of 0.8 lb AE/A when applied from crop emergence up to first flower. […]\nData Collection was performed as above. Glyphosate injury was assessed as follows. […] Vegetative injury was rated after the first glyphosate application while reproductive percent chlorosis/necrosis was evaluated after the second application using a scale ranging from 0% (no injury) to 100% (plant death). Growth reduction was evaluated at 14 to 21 days after each application using a scale ranging from 0 to 100%. Vegetative growth reduction was evaluated after the first application while reproductive growth reduction was determined after the sequential application. […]"}, "[5]": {"conditions": "glyphosate 450 g ae/ha at 1st flower"}, "[6]": {"conditions": "glyphosate 450 g ae/ha at 4-6 leaf"}, "[7]": {"conditions": "glyphosate 900 g ae/ha at 1st flower"}, "[8]": {"conditions": "glyphosate 900 g ae/ha at 4-6 leaf"}, "[9]": {"conditions": "glyphosate 1800 g ae/ha at 1st flower"}, "[10]": {"conditions": "glyphosate 1800 g ae/ha at 4-6 leaf"}, "[11]": {"conditions": "glyphosate 3600 g ae/ha at 1st flower"}, "[12]": {"conditions": "glyphosate 3600 g ae/ha at 4-6 leaf"}, "[13]": {"conditions": "glyphosate 11800 g ae/ha at 4-6 leaf"}},
  "data": [
    {"smiles": "O=C(O)CNCP(=O)(O)O", "note": "[glyphosate, N-phosphonomethyl-glycine]", "values": [
      {"measurement": "yield reduction", "setting": "[1]; 2× the proposed rate of 1800 g ae/ha at four to six leaf", "value": 30, "unit": "%"},
      {"measurement": "yield vs unsprayed", "setting": "[1]; 1800 and 3600 g ae/ha at both stages and 900 g/ha at first flower", "value": "significant yield reduction"},
      {"measurement": "yield reduction", "setting": "[1]; 1800 g ae/ha at four to six leaf", "value": 11.4, "unit": "%"},
      {"measurement": "maturity", "setting": "[1]; 3600 g ae/ha at both four to six leaf and first flower", "value": "delayed significantly"},
      {"measurement": "yield reduction", "setting": "[1]; all rates shown at first flower (FIG. 3)", "value": "significant yield reduction"},
      {"measurement": "7-10 DAT % CHLR Avg", "setting": "[1]; [5]", "value": 0.6, "unit": "%"},
      {"measurement": "14-21 DAT % GR Avg", "setting": "[1]; [5]", "value": 0.8, "unit": "%"},
      {"measurement": "7-10 DAT % CHLR Avg", "setting": "[1]; [6]", "value": 0.3, "unit": "%"},
      {"measurement": "14-21 DAT % GR Avg", "setting": "[1]; [6]", "value": 0.9, "unit": "%"},
      {"measurement": "7-10 DAT % CHLR Avg", "setting": "[1]; [7]", "value": 1.8, "unit": "%"},
      {"measurement": "14-21 DAT % GR Avg", "setting": "[1]; [7]", "value": 0.3, "unit": "%"},
      {"measurement": "7-10 DAT % CHLR Avg", "setting": "[1]; [8]", "value": 2.2, "unit": "%"},
      {"measurement": "14-21 DAT % GR Avg", "setting": "[1]; [8]", "value": 1.3, "unit": "%"},
      {"measurement": "7-10 DAT % CHLR Avg", "setting": "[1]; [9]", "value": 6.7, "unit": "%"},
      {"measurement": "14-21 DAT % GR Avg", "setting": "[1]; [9]", "value": 3.3, "unit": "%"},
      {"measurement": "7-10 DAT % CHLR Avg", "setting": "[1]; [10]", "value": 4.7, "unit": "%"},
      {"measurement": "14-21 DAT % GR Avg", "setting": "[1]; [10]", "value": 5.3, "unit": "%"},
      {"measurement": "7-10 DAT % CHLR Avg", "setting": "[1]; [11]", "value": 10, "unit": "%"},
      {"measurement": "14-21 DAT % GR Avg", "setting": "[1]; [11]", "value": 8.1, "unit": "%"},
      {"measurement": "7-10 DAT % CHLR Avg", "setting": "[1]; glyphosate 3600 g ae/ha at 1st flower, listed as Glyphosate", "value": 10.0, "unit": "%"},
      {"measurement": "7-10 DAT % CHLR Avg", "setting": "[1]; [12]", "value": 10, "unit": "%"},
      {"measurement": "14-21 DAT % GR Avg", "setting": "[1]; [12]", "value": 20.8, "unit": "%"},
      {"measurement": "7-10 DAT % CHLR Avg", "setting": "[1]; glyphosate 3600 g ae/ha at 4-6 leaf, listed as Glyphosate", "value": 10.0, "unit": "%"},
      {"measurement": "vegetative injury", "setting": "[2]; 2× product concept rate", "value": "very minor"},
      {"measurement": "yield", "setting": "[2]; regardless of rate, one event excepted at 6.4 lb AE/A followed by 6.4 lb AE/A", "value": "not negatively impacted"},
      {"measurement": "vegetative and reproductive tolerance to glyphosate", "setting": "[2]; sequential applications at four leaf and prebolt, 2×, 4×, 8× rates", "value": "excellent vegetative and reproductive tolerance"},
      {"measurement": "7-10 DAT % CHLR Avg", "setting": "[3]; [5]", "value": 0.0, "unit": "%"},
      {"measurement": "14-21 DAT % GR Avg", "setting": "[3]; [5]", "value": 0.0, "unit": "%"},
      {"measurement": "7-10 DAT % CHLR Avg", "setting": "[3]; [6]", "value": 0.0, "unit": "%"},
      {"measurement": "14-21 DAT % GR Avg", "setting": "[3]; [6]", "value": 0.3, "unit": "%"},
      {"measurement": "7-10 DAT % CHLR Avg", "setting": "[3]; [7]", "value": 0.3, "unit": "%"},
      {"measurement": "14-21 DAT % GR Avg", "setting": "[3]; [7]", "value": 0.8, "unit": "%"},
      {"measurement": "7-10 DAT % CHLR Avg", "setting": "[3]; [8]", "value": 0.7, "unit": "%"},
      {"measurement": "14-21 DAT % GR Avg", "setting": "[3]; [8]", "value": 0.7, "unit": "%"},
      {"measurement": "7-10 DAT % CHLR Avg", "setting": "[3]; [9]", "value": 0.9, "unit": "%"},
      {"measurement": "14-21 DAT % GR Avg", "setting": "[3]; [9]", "value": 0.0, "unit": "%"},
      {"measurement": "7-10 DAT % CHLR Avg", "setting": "[3]; [11]", "value": 4.7, "unit": "%"},
      {"measurement": "14-21 DAT % GR Avg", "setting": "[3]; [11]", "value": 1.1, "unit": "%"},
      {"measurement": "7-10 DAT % CHLR Avg", "setting": "[3]; [12]", "value": 1.7, "unit": "%"},
      {"measurement": "14-21 DAT % GR Avg", "setting": "[3]; [12]", "value": 0.3, "unit": "%"},
      {"measurement": "7-10 DAT % CHLR Avg", "setting": "[3]; [13]", "value": 1.7, "unit": "%"},
      {"measurement": "14-21 DAT % GR Avg", "setting": "[3]; [13]", "value": "no percent growth reduction"},
      {"measurement": "14-21 DAT % GR Avg", "setting": "[3]; glyphosate 11800 g ae/ha at 4-6 leaf, listed as Glyphosate", "value": 0.0, "unit": "%"},
      {"measurement": "yield reduction", "setting": "[3]; MON 88302 plants, 1800 g ae/ha and 2× at four to six leaf (FIG. 2)", "value": "No significant yield reductions"},
      {"measurement": "maturity", "setting": "[3]; MON 88302 plants, 1800 g ae/ha at four to six leaf", "value": "significant shortening of maturity"},
      {"measurement": "maturity", "setting": "[3]; MON 88302 plants, all rates except 1800 g ae/ha at four to six leaf", "value": "No delay in maturity"},
      {"measurement": "yield vs unsprayed", "setting": "[3]; MON 88302 plants, any rate or timing", "value": "No significant differences in yield"},
      {"measurement": "yield reduction", "setting": "[3]; MON 88302 plants, glyphosate rates at first flower (FIG. 3)", "value": "No significant yield reductions"},
      {"measurement": "yield", "setting": "[4]; all construct 2 events, regardless of application rate", "value": "significantly reduced the yield"},
      {"measurement": "injury", "setting": "[4]; construct 2 events, all glyphosate rates tested", "value": "Unacceptable levels of injury"}
    ]}
  ]
}
